According to the NIST ThermoML archive (doi:10.1021/je034102r):

Assay: molar heat capacity at constant pressure
Conditions: 101.33 kPa, Liquid, heat bridge-scanning calorimeter

CCCCn1cc[n+](C)c1.F[P-](F)(F)(F)(F)F [1-butyl-3-methylimidazolium hexafluorophosphate]
Conditions	molar heat capacity at constant pressure [J/K/mol]
466.32 K	494.48
466.46 K	494.76
466.59 K	495.05
466.73 K	495.9
466.87 K	495.33
467 K	495.33
467.14 K	495.33
467.28 K	495.05
467.41 K	495.33
467.55 K	495.05
467.84 K	495.05
467.98 K	495.33
468.12 K	495.33
468.25 K	495.9
468.39 K	495.9
468.52 K	495.61
468.66 K	495.61
468.8 K	495.33
468.93 K	495.05
469.25 K	495.33
469.38 K	495.33
469.52 K	495.33
469.66 K	495.33
469.79 K	495.61
469.93 K	495.61
470.07 K	495.61
470.2 K	495.61
470.34 K	496.18
470.48 K	495.61
470.61 K	495.9
470.91 K	495.9
471.04 K	496.18
471.18 K	496.47
471.32 K	496.47
471.45 K	496.47
471.59 K	496.47
471.73 K	496.47
471.87 K	496.18
472 K	496.47
472.3 K	496.47
472.44 K	496.47
472.58 K	496.47
472.71 K	496.75
472.85 K	496.75
472.99 K	496.47
473.12 K	496.47
473.26 K	496.47
473.4 K	496.47
473.53 K	496.47
473.67 K	497.03
473.97 K	498.17
474.1 K	497.6
474.24 K	497.32
474.38 K	497.32
474.51 K	497.6
474.65 K	497.32
474.79 K	497.03
474.92 K	496.75
475.06 K	496.75
475.36 K	496.75
475.5 K	497.03
475.63 K	496.75
475.78 K	497.03
475.92 K	497.03
476.06 K	497.03
476.19 K	497.03
476.33 K	497.03
476.47 K	497.32
476.61 K	497.32
476.74 K	497.32
477.04 K	497.6
477.18 K	497.32
477.31 K	497.6
477.45 K	498.17
477.59 K	497.89
477.72 K	497.89
477.86 K	497.89
478 K	497.6
478.13 K	497.6
478.44 K	497.6
478.57 K	497.6
478.71 K	497.6
478.85 K	497.6
478.98 K	497.6
479.12 K	497.89
479.26 K	497.6
479.39 K	497.6
479.53 K	497.89
479.67 K	497.89
479.81 K	498.17
480.1 K	498.17
480.24 K	498.17
480.38 K	497.89
480.51 K	498.17
480.65 K	498.17
480.79 K	497.89
480.92 K	498.17
481.06 K	498.17
481.2 K	498.17
481.5 K	498.46
481.64 K	498.74
481.78 K	499.31
481.91 K	498.74
482.05 K	498.46
482.2 K	498.46
482.34 K	498.46
482.47 K	498.46
482.61 K	498.46
482.75 K	498.46
482.89 K	498.46
483.19 K	498.46
483.32 K	498.74
483.46 K	499.02
483.6 K	499.02
483.74 K	499.31
483.87 K	499.31
484.01 K	499.31
484.15 K	500.16
484.29 K	500.16
484.59 K	499.59
484.72 K	499.59
484.86 K	499.31
485 K	499.59
485.14 K	499.88
485.27 K	499.59
485.41 K	499.88
485.55 K	499.59
485.69 K	500.16
485.83 K	500.45
485.96 K	501.01
486.26 K	500.73
486.4 K	501.01
486.53 K	501.01
486.67 K	500.45
486.81 K	500.16
486.95 K	500.16
487.08 K	500.45
487.22 K	501.01
487.36 K	500.73
487.66 K	502.15
487.8 K	501.58
487.94 K	501.3
488.07 K	501.01
488.21 K	501.01
488.35 K	501.87
488.48 K	501.3
488.62 K	501.01
488.77 K	500.73
488.91 K	501.3
489.05 K	501.58
489.34 K	501.01
489.48 K	501.58
489.62 K	501.3
489.75 K	501.87
489.89 K	501.3
490.03 K	501.01
490.16 K	501.3
490.3 K	501.87
490.44 K	501.01
490.74 K	500.73
490.88 K	501.3
491.02 K	501.01
491.15 K	501.01
491.29 K	501.01
491.43 K	501.01
491.56 K	500.73
491.7 K	501.3
491.84 K	501.58
491.98 K	501.3
492.11 K	501.01
492.41 K	501.3
492.55 K	502.15
492.69 K	501.87
492.82 K	502.43
492.96 K	502.72
493.1 K	502.15
493.23 K	501.87
493.37 K	501.58
493.51 K	501.3
493.81 K	501.3
493.95 K	502.43
494.09 K	503.29
494.22 K	502.72
494.36 K	502.72
494.5 K	502.72
494.64 K	502.72
494.77 K	502.72
494.91 K	502.72
495.05 K	502.72
495.2 K	503.29
495.5 K	502.72
495.63 K	502.43
495.77 K	502.43
495.91 K	502.43
496.05 K	502.72
496.18 K	503.86
496.32 K	504.14
496.46 K	504.14
496.6 K	503.29
496.9 K	505.56
497.04 K	506.13
497.17 K	506.13
497.31 K	504.99
497.45 K	504.42
497.58 K	504.14
497.72 K	503.57
497.86 K	503.57
498 K	503.57
498.13 K	503.29
498.27 K	503.86
498.57 K	504.71
498.7 K	504.42
498.84 K	505.84
498.98 K	507.27
499.11 K	506.98
499.25 K	505.84
499.39 K	504.99
499.52 K	504.71
499.66 K	504.42
499.96 K	504.14
500.1 K	504.42
500.24 K	504.42
500.37 K	504.42
500.51 K	504.71
500.65 K	505.56
500.79 K	506.13
500.92 K	506.41
501.06 K	506.13
501.2 K	506.41
501.34 K	506.7
501.63 K	505.84
501.78 K	506.98
501.92 K	507.55
502.06 K	506.41
502.19 K	505.84
502.33 K	505.56
502.47 K	505.28
502.61 K	504.99
502.74 K	505.28
503.05 K	505.28
503.18 K	504.99
503.32 K	505.28
503.46 K	505.28
503.59 K	505.28
503.73 K	505.84
503.87 K	505.84
504.01 K	505.84
504.14 K	506.13
504.28 K	507.55
504.42 K	505.84
504.71 K	505.84
504.85 K	505.84
504.99 K	506.13
505.13 K	506.41
505.26 K	506.7
505.4 K	506.41
505.54 K	506.98
505.68 K	506.98
505.81 K	505.84
506.11 K	505.84
506.25 K	506.13
506.39 K	507.83
506.53 K	507.27
506.66 K	506.98
506.8 K	506.98
506.94 K	506.41
507.08 K	506.13
507.21 K	506.13
507.35 K	506.7
507.49 K	506.98
507.78 K	507.27
507.92 K	508.12
508.06 K	508.12
508.21 K	508.12
508.35 K	507.27
508.48 K	506.98
508.62 K	506.98
508.76 K	506.98
508.9 K	507.27
509.2 K	506.7
509.33 K	506.98
509.47 K	507.83
509.61 K	508.69
509.75 K	509.25
509.88 K	509.25
510.02 K	507.55
510.16 K	506.7
510.29 K	506.13
510.43 K	506.7
510.57 K	507.55
510.86 K	507.83
511 K	507.27
511.14 K	506.7
511.28 K	506.41
511.41 K	505.84
511.55 K	506.41
511.69 K	507.27
511.83 K	506.98
511.96 K	506.41
512.26 K	506.7
512.4 K	507.27
512.54 K	507.55
512.68 K	507.55
512.81 K	507.55
512.95 K	506.98
513.09 K	506.7
513.23 K	506.98
513.36 K	506.98
513.5 K	506.7
513.64 K	506.41
513.93 K	506.13
514.07 K	506.13
514.21 K	506.13
514.35 K	506.41
514.48 K	507.27
514.62 K	507.83
514.77 K	507.83
514.91 K	507.27
515.05 K	506.98
515.35 K	507.55
515.49 K	507.55
515.62 K	506.98
515.76 K	506.98
515.9 K	506.98
516.04 K	507.27
516.18 K	507.27
516.31 K	506.98
516.45 K	506.98
516.59 K	506.98
516.73 K	506.7
517.03 K	507.27
517.16 K	506.98
517.3 K	507.27
517.44 K	506.98
517.58 K	506.98
517.71 K	507.27
517.85 K	506.98
517.99 K	506.98
518.13 K	507.27
518.43 K	508.97
518.57 K	508.12
518.71 K	507.83
518.85 K	507.55
518.98 K	507.83
519.12 K	508.12
519.26 K	508.4
519.4 K	508.4
519.53 K	508.4
519.67 K	508.12
519.81 K	508.12
520.11 K	508.12
520.24 K	508.4
520.38 K	508.97
520.52 K	508.97
520.66 K	509.25
520.79 K	509.54
520.93 K	509.54
521.07 K	509.25
521.22 K	508.97
521.52 K	509.25
521.66 K	509.25
521.8 K	509.25
521.94 K	509.25
522.07 K	509.25
522.21 K	509.54
522.35 K	509.82
522.49 K	510.39
522.62 K	510.39
522.76 K	510.11
522.9 K	510.11
523.2 K	510.11
523.33 K	509.82
523.47 K	509.82
523.61 K	509.82
523.75 K	509.82
523.88 K	510.11
524.02 K	510.39
524.16 K	510.11
524.3 K	509.82
524.6 K	509.82
524.74 K	510.11
524.87 K	510.11
